Reference: patent US20030153073A1, “Expansion of T cells in vitro and expanded T cell populations” (priority 2001, published 2003)

Key:
K562 = assay: 51Cr cytotoxicity assay, Vα24+ T cell effectors, K562 targets; type: cell-based, human; settings: targets pre-pulsed (FIG. 4)
Description: (§1) The cell lines U937 (histiocytic lymphoma), RAJI (Burkitt's B cell lymphoma), and K562 (erythroleukemia) were originally obtained from the American Type Culture Collection, ATCC (Mannassas, Va.) and were a gift from Dr. D. Green (La Jolla Institutive for Allergy and Immunology (LIAI), San Diego, Calif.). The T cell leukemia Jurkat cell line was obtained from Nobuaki Takahashi (Kirin Brewery Co., Ltd., Gunma, Japan). Cells were maintained in RPMI-1640 with 10% fetal calf serum (GibcoBRL), penicillin, streptomycin, 2-mercaptoethanol, and Hepes as described previously. For cytotoxic assays, cells were cultured at 1×10^5/ml with 50 ng/ml KRN7000, β-GalCer, or 0.5% DMSO (vehicle) for 16 hours prior to assay.
(§2) ^51Cr cytotoxicity assays were performed as follows. A total of 5×10^3 51Cr-labeled cells (Na2^51CrO3) (ICN Biomedicals, Inc.) from the U937, K562, or Jurkat cell line as the target cells and various numbers of effector Vα24^+ T cells in 0.2 ml of culture medium were seeded into round-bottom microtiter wells. The culture was incubated at 37° C. in an atmosphere containing 6% CO2 for 5 h, and 0.1 ml of supernatant was collected from each well. The percentage of specific ^51Cr release was calculated as follows: [(cpm experimental−cpm spontaneous release)/(cpm maximal release−cpm spontaneous release)]×100.

[1] = system: CD3^+hCD1d/KRN7000 Tetramer^+ T cells; assay: Expansion of CD3+ hCD1d/KRN7000 Tetramer+ T cells in PBMC culture, 7 days; type: cell-based, human
Molt-4 = assay: 51Cr cytotoxicity assay, Vα24+ T cell effectors, Molt-4 targets; type: cell-based, human; settings: data not shown
PBMC = assay: Proliferation of PBMCs, [3H]-thymidine incorporation; type: cell-based, human; settings: donor 9 PBMC, 5 days, tritiated thymidine incorporation
Jurkat tumor cells = assay: 51Cr cytotoxicity assay, Vα24+ T cell effectors, Jurkat targets; type: cell-based, human; settings: targets pulsed 16 hours with 50 ng/ml glycolipid (FIG. 4)
Description: as §1
as §2, with “release)]×100. […]” for “release)]×100.”

RAJI = assay: 51Cr cytotoxicity assay, Vα24+ T cell effectors, RAJI targets; type: cell-based, human; settings: data not shown
Description: as §1, §2

U937 = assay: 51Cr cytotoxicity assay, Vα24+ T cell effectors, U937 targets; type: cell-based, human; settings: targets pulsed 16 hours with 50 ng/ml glycolipid (FIG. 4)
Description: as §1, §2

Row | Molecule | increase in Vα24/Vβ11 cells with autologous donor serum versus commercial pooled human serum (Vα24^+Vβ11^+ T cells; 3 donors, KRN7000 and rhIL-2, 7 days) | Percentage of Vα24/Vβ11 cells (Vα24^+Vβ11^+ T cells; donor 9 PBMC, 7 days, flow cytometry) | Number of Vα24Vβ11 cells (Vα24^+Vβ11^+ T cells; donor 9 PBMC, day 7, cell recovery × percentage) | lysis of glycolipid-pulsed K562 target cells by expanded Vα24^+ T cells (K562) | % CD^3+ Tetramer^+ cells ([1]; PBMC 1×10^6/ml, 7 days, KRN7000 100 ng/ml, rhIL-2 10 ng/ml, rhIL-15 100 ng/ml, flow cytometry) | number of Tetramer^+ cells ([1]; percentage × cells recovered, day 7) | killing of Molt-4 target cells by expanded Vα24^+ T cells (Molt-4) | Proliferation, cpm (PBMC) | Proliferation, cpm (PBMC; listed as KRN7000 only) | lysis of glycolipid-pulsed Jurkat target cells by CD4^+ and CD4^− expanded Vα24^+ T cells (Jurkat tumor cells) | killing of RAJI target cells by expanded Vα24^+ T cells (RAJI) | lysis of glycolipid-pulsed U937 target cells by CD4^+ and CD4^− expanded Vα24^+ T cells (U937)
1 | CCCCCCCCCCCCCCCCCCCCCCCCCC(=O)N[C@@H](CO[C@H]1O[C@H](CO)[C@H](O)[C@H](O)[C@H]1O)[C@H](O)[C@H](O)CCCCCCCCCCCCCC [KRN7000, (2S,3S,4R)-1-O-(alpha-D-Galactopyranosyl)-N-hexacosanoyl-2-amino-1,3,4-octadecanetriol] | up to 7 times | 0.25% | 2,125 | not lysed | 0.03% | 312 | not killed | little or no proliferation | 1,145 cpm | lysed | not killed | lysed
2 | β-galactosylceramide [β-GalCer] |  |  |  |  |  |  |  |  |  | not lysed |  | not lysed
